Reference: article PMC3341389, “Spiroindolines Identify the Vesicular Acetylcholine Transporter as a Novel Target for Insecticide Action” (PLoS ONE, 2012)

Legend:
D. melanogaster VAChT [1] = biological target: T1, D. melanogaster VAChT (Drosophila melanogaster, UniProt O17444); experiment: inhibition of vesicular acetylcholine uptake, PNS from PC12 cells expressing VAChT; format: biochemical; details: substrate acetylcholine
T1 construct: full-length gene cloned by PCR from adult fly cDNA library, Gateway vector, expressed in PC12 cells (rat)
T1 sequence (O17444 1-578): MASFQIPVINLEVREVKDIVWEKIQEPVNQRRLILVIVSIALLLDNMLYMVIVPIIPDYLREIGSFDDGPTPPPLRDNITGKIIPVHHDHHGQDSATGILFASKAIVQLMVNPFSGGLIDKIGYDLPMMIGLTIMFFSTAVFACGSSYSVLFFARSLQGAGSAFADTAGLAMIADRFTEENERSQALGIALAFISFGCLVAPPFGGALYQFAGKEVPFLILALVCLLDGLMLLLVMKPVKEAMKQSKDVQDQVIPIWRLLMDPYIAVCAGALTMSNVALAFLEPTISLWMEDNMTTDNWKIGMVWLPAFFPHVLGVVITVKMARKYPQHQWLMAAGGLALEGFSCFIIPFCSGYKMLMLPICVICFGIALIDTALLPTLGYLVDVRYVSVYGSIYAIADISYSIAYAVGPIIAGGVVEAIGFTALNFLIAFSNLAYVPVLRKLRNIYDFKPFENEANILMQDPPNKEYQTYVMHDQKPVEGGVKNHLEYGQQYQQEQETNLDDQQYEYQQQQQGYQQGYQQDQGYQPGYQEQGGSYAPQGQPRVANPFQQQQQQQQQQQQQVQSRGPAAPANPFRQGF

D. melanogaster VAChT [2] = biological target: T1, D. melanogaster VAChT; experiment: [3H]-SYN876 saturation binding to membranes of PC12 cells expressing VAChT
D. melanogaster VAChT [3] = biological target: T1, D. melanogaster VAChT; experiment: displacement of [3H]-SYN876 from membranes of PC12 cells expressing VAChT; format: binding; details: competition with [3H]-SYN876

Structure (SMILES)	IC50 (D. melanogaster VAChT [1])	Kd (D. melanogaster VAChT [2]) [pM]	IC50 (D. melanogaster VAChT [3])
O=C(c1ccnc(Cl)c1)N1CC2(CCN(C/C=C/c3ccc(Cl)cc3)CC2)c2cc(F)ccc21 [SYN876]	Inhibition of the acetylcholine transport activity of PNS from the cells	40	
Nc1cccc2c1CC(N1CCC(c3ccccc3)CC1)C(O)C2 (stereo not shown) [aminobenzovesamicol]			displaced by the known VAChT inhibitors vesamicol and aminobenzovesamicol (table S3)
OC1CCCCC1N1CCC(c2ccccc2)CC1 (stereo not shown) [vesamicol]			displaced by the known VAChT inhibitors vesamicol and aminobenzovesamicol (table S3)
